Laboratory results published in publication PMC9079302 (The Journal of Biological Chemistry, 2022).
Values joined by “and” are separate entries in the source; they are usually repeats but may differ in a detail not shown here. Equal values may be shown once. Read-outs that look alike come from different tables or passages of the source.

Experiments:
[1] = target: T1, P450 3A5 (Homo sapiens, UniProt P20815); assay: Type 1 spectral shift equilibrium binding to P450 3A5; conditions: for concentration dependence of type 1 spectral shift (shape of binding curve): 3A5 binding isotherm; for ΔAmax/[P450]: one-site binding (Equation 2; tiamulin Equation 3)
T1 construct: 4-histidine tag (C); made in house; host or cells: Escherichia coli
Description: The sample cuvette contained 3A5, and the corresponding buffer was in the reference cuvette. The protein buffer consisted of 50 mM sodium Hepes at pH 7.4, 50 mM potassium acetate at pH 7.4, 0.5 mM EDTA, and 20% glycerol. […] The digital spectra were sampled at 1 nm intervals for 1 s. Excel was used to subtract the initial spectrum from subsequent spectra with volume corrections for substrate addition. […] Initial values for Kds and RSRs for each complex are provided. Ligand-free P450 was assigned an RSR of zero. The output includes predicted values for Kds and RSRs, correlations between parameters, and several statistical values for goodness of fit and variances. In addition, graphs of the fit of the data to the model and residuals are produced in several formats.

[2] = test system: 3A5; design: method as in PMID 17200113; conditions: type 2 shift, 1 μM P450, biphasic response; cited from earlier work
[3] = test system: 3A5; design: method as in PMID 27485383; conditions: cited from earlier work
[4] = test system: human microsomal testosterone turnover; design: method as in PMID 33137559; conditions: human microsomes; cited from earlier work
[5] = type 1 spectral shift, one-site binding (Equation 2; tiamulin tight-binding Equation 3), [P450] 0.94–2.03 μM, read-out: Kd

T1 sequence (P20815 with tags, fused parts or gaps limits assumed): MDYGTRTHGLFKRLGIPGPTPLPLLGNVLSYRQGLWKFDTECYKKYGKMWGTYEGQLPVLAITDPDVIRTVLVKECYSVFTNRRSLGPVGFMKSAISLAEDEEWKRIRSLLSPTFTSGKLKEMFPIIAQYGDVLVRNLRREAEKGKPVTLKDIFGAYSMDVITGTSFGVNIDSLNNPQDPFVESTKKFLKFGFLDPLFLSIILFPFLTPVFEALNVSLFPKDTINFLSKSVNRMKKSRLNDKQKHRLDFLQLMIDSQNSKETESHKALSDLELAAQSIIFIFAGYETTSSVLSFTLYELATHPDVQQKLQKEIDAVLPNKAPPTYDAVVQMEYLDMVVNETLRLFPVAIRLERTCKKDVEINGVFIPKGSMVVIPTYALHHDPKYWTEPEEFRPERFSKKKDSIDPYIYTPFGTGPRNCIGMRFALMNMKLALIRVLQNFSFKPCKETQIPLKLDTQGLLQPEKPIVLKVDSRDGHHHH

Row | concentration dependence of type 1 spectral shift (shape of binding curve) [1] | ΔAmax/[P450] ([1]; type 1 spectral shift) | Kd [1, 5] [µM] | Compound | other results
1 | hyperbolic | 0.08 ± 0.00 | 6.31 ± 1.02 | C=C[C@]1(C)C[C@@H](OC(=O)CSCCN(CC)CC)[C@]2(C)[C@H](C)CC[C@]3(CCC(=O)[C@H]32)[C@@H](C)[C@@H]1O [Tiamulin] | IC50 [4]: 1.69 µM
2 | hyperbolic | 0.09 ± 0.00 | 16.6 ± 2.4 | C=C[C@]1(C)C[C@@H](OC(=O)CS[C@@H]2C[C@H]3CC[C@@H](C2)N3C)[C@]2(C)[C@H](C)CC[C@]3(CCC(=O)[C@H]32)[C@@H](C)[C@@H]1O [Retapamulin] | –

Further lines, the molecule ahead of its results:

Row | Compound | concentration dependence of type 1 spectral shift (shape of binding curve) [1] | ΔAmax/[P450] ([1]; type 1 spectral shift) | Kd [1, 5] [µM] | other results
3 | C=C[C@]1(C)C[C@@H](OC(=O)CO)[C@]2(C)[C@H](C)CC[C@]3(CCC(=O)[C@H]32)[C@@H](C)[C@@H]1O [Pleuromutilin] | hyperbolic | 0.12 ± 0.02 | 32.7 ± 4.3 | –
4 | CC(=O)N1CCN(c2ccc(OCC3COC(Cn4ccnc4)(c4ccc(Cl)cc4Cl)O3)cc2)CC1 (stereo not drawn) [ketoconazole] | – | – | – | Hill coefficient [2]: 1.4
5 | C=C[C@]1(C)C[C@@H](OC(=O)CS[C@@H]2CC[C@@H](N)C[C@H]2O)[C@]2(C)[C@H](C)CC[C@]3(CCC(=O)[C@H]32)[C@@H](C)[C@@H]1O [Lefamulin] | hyperbolic | 0.06 ± 0.00 | 55.1 ± 7.8 | –
6 | CC[C@]1(C)C[C@@H](OC(=O)CSc2n[nH]c(N)n2)[C@]2(C)[C@H](C)CC[C@]3(CCC(=O)[C@H]32)[C@@H](C)[C@@H]1O [Azamulin, (3aS,4R,5S,6R,8R,9R,9aR,10R)-6-ethyl-5-hydroxy-4,6,9,10-tetramethyl-1-oxodecahydro-3a,9-propanocyclopenta[8]annulen-8-yl [(5-amino-1H-1,2,4-triazol-3-yl)sulfanyl]acetate] | – | – | – | Kd ([1]; Dynafit numerical fit, model 4, [P450] 3.73–4.36 μM, 4 replicates, read-out: K1d (binary complex, two-site sequential binding model)): 0.6 µM and 0.65 µM; Kd ([1]; Dynafit numerical fit, model 4, [P450] 3.73–4.36 μM, 4 replicates, read-out: K2d (ternary complex, two-site sequential binding model)): 3.4 µM and 3.41 µM; Kd ([1]; type 1 spectral shift, sigmoidal curve, nominal 4 μM 3A5, n = 4, read-out: Kd (Hill equation fit)): 7.1 ± 0.4 µM; time-dependent inhibition of 3A5 [3]: either very slow or nonexistent
